Results on 29 compounds are retold here after patent publication US9328106B2, “Cyclic ether pyrazol-4-yl-heterocyclyl-carboxamide compounds and methods of use” (Genentech, Inc., priority 2012, dated 2016).

In the experiment the target is PIM1 (Homo sapiens (Human), UniProt P11309). In words: biochemical. As to conditions: 20 pM PIM1, 1 μM FAM-peptide, 10 μM ATP, 90 minutes at room temperature; read-out: PIM1 LC3K (KI). In kind it is biochemical.
PIM1, sequence (P11309 whole entry): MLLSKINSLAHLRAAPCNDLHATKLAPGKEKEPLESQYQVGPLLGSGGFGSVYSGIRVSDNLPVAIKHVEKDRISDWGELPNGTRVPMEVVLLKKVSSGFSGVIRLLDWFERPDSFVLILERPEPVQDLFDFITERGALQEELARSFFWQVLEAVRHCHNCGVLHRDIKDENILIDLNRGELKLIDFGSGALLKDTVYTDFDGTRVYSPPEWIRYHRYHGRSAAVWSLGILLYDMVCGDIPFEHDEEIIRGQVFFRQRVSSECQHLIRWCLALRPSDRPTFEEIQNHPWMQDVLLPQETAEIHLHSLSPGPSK
Take `CO[C@H]1CO[C@H](c2c(NC(=O)c3nc(-c4ccccc4C(F)(F)F)sc3N)cnn2C)CC[C@H]1N` [Example 220, 5-amino-N-(5-((2S,5R,6R)-5-amino-6-methoxyoxepan-2-yl)-1-methyl-1H-pyrazol-4-yl)-2-(2-(trifluoromethyl)phenyl)thiazole-4-carboxamide]: the Ki amounted to 0.083 nM. On to `Cn1ncc(NC(=O)c2csc(-n3cc4ccccc4n3)n2)c1[C@@H]1CC[C@@H](N)[C@H](F)CO1` [Example 396, N-(5-((2S,5R,6S)-5-amino-6-fluorooxepan-2-yl)-1-methyl-1H-pyrazol-4-yl)-2-(2H-indazol-2-yl)thiazole-4-carboxamide], for which the Ki was 0.002 nM. For `Cn1ncc(NC(=O)c2csc(-c3cccc4c3cnn4C)n2)c1[C@@H]1CC[C@@H](N)[C@H](F)CO1` [Example 402, N-[5-[(2S,5R,6S)-5-amino-6-fluoro-oxepan-2-yl]-1-methyl-pyrazol-4-yl]-2-(1-methylindazol-4-yl)thiazole-4-carboxamide], the Ki was 0.117 nM. `Cn1ncc(NC(=O)c2csc(-c3cccc(F)c3Cl)n2)c1[C@@H]1CC[C@@H](N)[C@@H](F)CO1` [Example 250, N-(5-((2S,5R,6R)-5-amino-6-fluorooxepan-2-yl)-1-methyl-1H-pyrazol-4-yl)-2-(2-chloro-3-fluorophenyl)thiazole-4-carboxamide]: the Ki is 0.132 nM. Turning to `Cn1ncc(NC(=O)c2nc(-c3c(F)cccc3F)sc2N)c1[C@@H]1CC(F)[C@H](N)CCO1` (stereo partly drawn) [Example 150, 5-Amino-N-[5-[(2S,5R)-5-amino-4-fluoro-oxepan-2-yl]-1-methyl-pyrazol-4-yl]-2-(2,6-difluorophenyl)thiazole-4-carboxamide], the Ki is 0.105 nM. With `Cn1ncc(NC(=O)c2csc(-c3c(F)cncc3Cl)n2)c1[C@@H]1CC[C@@H](N)[C@H](F)CO1` [Example 349, N-(5-((2S,5R,6S)-5-amino-6-fluorooxepan-2-yl)-1-methyl-1H-pyrazol-4-yl)-2-(3-chloro-5-fluoropyridin-4-yl)thiazole-4-carboxamide], the Ki was found to be 3.12 nM.

On to `Cn1ncc(NC(=O)c2ccc(F)c(-c3c(F)cc(C4(F)CCOCC4)cc3F)n2)c1[C@@H]1CC[C@@H](N)[C@H](F)CO1` [Example 206, N-(5-((2S,5R,6S)-5-amino-6-fluorooxepan-2-yl)-1-methyl-1H-pyrazol-4-yl)-6-(2,6-difluoro-4-(4-fluorotetrahydro-2H-pyran-4-yl)phenyl)-5-fluoropicolinamide], for which the Ki turned out to be 0.016 nM. Turning to `Cn1ncc(NC(=O)c2csc(-c3cccc(Cl)c3F)n2)c1[C@@H]1CC[C@@H](N)[C@@H](F)CO1` [Example 248, N-(5-((2S,5R,6R)-5-amino-6-fluorooxepan-2-yl)-1-methyl-1H-pyrazol-4-yl)-2-(3-chloro-2-fluorophenyl)thiazole-4-carboxamide], the Ki came to 0.064 nM. For `Cn1ncc(NC(=O)c2csc(-c3c(F)cc(C4CCOC4)cc3F)n2)c1[C@@H]1CC[C@@H](N)[C@H](F)CO1` (stereo partly drawn) [Example 216, N-(5-((2S,5R,6S)-5-amino-6-fluorooxepan-2-yl)-1-methyl-1H-pyrazol-4-yl)-2-(2,6-difluoro-4-(tetrahydrofuran-3-yl)phenyl)thiazole-4-carboxamide], the Ki is 0.011 nM. Turning to `CO[C@@H]1C[C@@H](c2c(NC(=O)c3nc(-c4c(F)cccc4F)sc3N)cnn2C)OCC[C@H]1N` [Example 136, 5-amino-N-(5-((2S,4R,5R)-5-amino-4-methoxyoxepan-2-yl)-1-methyl-1H-pyrazol-4-yl)-2-(2,6-difluorophenyl)thiazole-4-carboxamide], the Ki was determined as 0.057 nM. Turning to `Cn1ncc(NC(=O)c2nc(-c3c(F)cccc3F)sc2N)c1C1CCC(N)C(F)CO1` (centres unmarked) [Example 124, 5-amino-N-[5-(5-amino-6-fluoro-oxepan-2-yl)-1-methyl-pyrazol-4-yl]-2-(2,6-difluorophenyl)thiazole-4-carboxamide], the Ki amounted to 0.015 nM.

For `Cn1ncc(NC(=O)c2nc(-c3ccccc3F)sc2N)c1C12CCC(CN)(CC1)O2` [Example 139, 5-amino-N-[5-[1-(aminomethyl)-7-oxabicyclo[2.2.1]heptan-4-yl]-1-methyl-pyrazol-4-yl]-2-(2-fluorophenyl)thiazole-4-carboxamide], the Ki was 0.053 nM. As to `Cn1ncc(NC(=O)c2csc(-c3cncc(F)c3)n2)c1[C@@H]1CC[C@@H](N)[C@H](F)CO1` [Example 239, N-(5-((2S,5R,6S)-5-amino-6-fluorooxepan-2-yl)-1-methyl-1H-pyrazol-4-yl)-2-(5-fluoropyridin-3-yl)thiazole-4-carboxamide], the Ki turned out to be 2.66 nM. With `C[C@@H]1O[C@H](c2c(NC(=O)c3nc(-c4c(F)cccc4F)sc3N)cnn2C)CC(F)(F)[C@]1(C)N` [Example 185, 5-Amino-N-(5-((2S,5R,6S)-5-amino-4,4-difluoro-5,6-dimethyltetrahydro-2H-pyran-2-yl)-1-methyl-1H-pyrazol-4-yl)-2-(2,6-difluorophenyl)thiazole-4-carboxamide], the Ki was determined as 4.35 nM. `CC[C@]1(CO)CO[C@@H](c2c(NC(=O)c3nc(-c4c(F)cccc4F)sc3N)cnn2C)OC1` [Example 163, 5-Amino-2-(2,6-difluorophenyl)-N-[5-[5-ethyl-5-(hydroxymethyl)-1,3-dioxan-2-yl]-1-methyl-pyrazol-4-yl]thiazole-4-carboxamide]: the inhibition constant Ki came to 1.26 nM. Take `Cn1ncc(NC(=O)c2nc(-c3c(F)cccc3F)sc2N)c1C1CC(F)(F)CC(N)CO1` (centres unmarked) [Example 133, 5-amino-N-[5-(6-amino-4,4-difluoro-oxepan-2-yl)-1-methyl-pyrazol-4-yl]-2-(2,6-difluorophenyl)thiazole-4-carboxamide]: the Ki was 0.076 nM. `Cc1cccc(F)c1-c1nc(C(=O)Nc2cnn(C)c2[C@@H]2CC[C@@H](N)[C@H](F)CO2)cs1` [Example 315, N-(5-((2S,5R,6S)-5-amino-6-fluorooxepan-2-yl)-1-methyl-1H-pyrazol-4-yl)-2-(2-fluoro-6-methylphenyl)thiazole-4-carboxamide]: the Ki was determined as 0.091 nM. The value for `Cn1ncc(NC(=O)c2nc(-c3c(F)cccc3F)sc2N)c1[C@@H]1C[C@@H](F)[C@H](N)CCO1` (stereo in doubt) [Example 135, 5-amino-N-[5-(5-amino-4-fluoro-oxepan-2-yl)-1-methyl-pyrazol-4-yl]-2-(2,6-difluorophenyl)thiazole-4-carboxamide] was 0.01 nM; that for `Cn1ncc(NC(=O)c2nc(-c3c(F)cccc3F)sc2N)c1[C@H]1OC[C@H](CN)CO1` [Example 167, 5-Amino-N-[5-[5-(aminomethyl)-1,3-dioxan-2-yl]-1-methyl-pyrazol-4-yl]-2-(2,6-difluorophenyl)thiazole-4-carboxamide] was 0.029 nM. With `Cn1ncc(NC(=O)c2nc(-c3c(F)cccc3F)sc2N)c1C1OCC(CO)CO1` (centres unmarked) [Example 165, 5-Amino-2-(2,6-difluorophenyl)-N-[5-[5-(hydroxymethyl)-1,3-dioxan-2-yl]-1-methyl-pyrazol-4-yl]thiazole-4-carboxamide], the Ki was 0.647 nM. Regarding `COCCOc1cc(F)c(-c2nc(C(=O)Nc3cnn(C)c3[C@@H]3CC[C@@H](N)[C@H](F)CO3)ccc2F)c(F)c1` [Example 192, N-(5-((2S,5R,6S)-5-amino-6-fluorooxepan-2-yl)-1-methyl-1H-pyrazol-4-yl)-6-(2,6-difluoro-4-(2-methoxyethoxy)phenyl)-5-fluoropicolinamide], the Ki worked out at 0.023 nM. Regarding `Cn1ncc(NC(=O)c2nc(-c3c(F)cccc3F)sc2N)c1[C@H]1C[C@@H](N)CCO1` [Example 159, 5-Amino-N-[5-[(2R,4S)-4-aminotetrahydropyran-2-yl]-1-methyl-pyrazol-4-yl]-2-(2,6-difluorophenyl)thiazole-4-carboxamide], the Ki is 0.019 nM. For the compound `Cc1cc(F)c(-c2nc(C(=O)Nc3cnn(C)c3[C@@H]3CC[C@@H](N)[C@H](F)CO3)ccc2F)c(F)c1` [Example 392, N-(5-((2S,5R,6S)-5-amino-6-fluorooxepan-2-yl)-1-methyl-1H-pyrazol-4-yl)-6-(2,6-difluoro-4-methylphenyl)-5-fluoropicolinamide], the inhibitory constant (Ki) was 0.041 nM.

On to `Cn1ncc(NC(=O)c2csc(-c3ccccc3F)n2)c1[C@@H]1CC[C@@H](N)[C@@H](F)CO1` [Example 318, N-(5-((2S,5R,6R)-5-amino-6-fluorooxepan-2-yl)-1-methyl-1H-pyrazol-4-yl)-2-(2-fluorophenyl)thiazole-4-carboxamide], for which the inhibition constant (Ki) came out at 0.098 nM. For `Cn1ncc(NC(=O)c2ccc(F)c(-c3cccc(F)c3F)n2)c1[C@@H]1CC[C@@H](N)[C@H](F)CO1` [Example 223, N-(5-((2S,5R,6S)-5-amino-6-fluorooxepan-2-yl)-1-methyl-1H-pyrazol-4-yl)-6-(2,3-difluorophenyl)-5-fluoropicolinamide], the Ki amounted to 0.083 nM. The value for `Cn1cc(-c2nc(C(=O)Nc3cnn(C)c3[C@@H]3CC[C@@H](N)[C@@H](F)CO3)cs2)c(C(F)(F)F)n1` [Example 252, N-(5-((2S,5R,6R)-5-amino-6-fluorooxepan-2-yl)-1-methyl-1H-pyrazol-4-yl)-2-(1-methyl-3-(trifluoromethyl)-1H-pyrazol-4-yl)thiazole-4-carboxamide] was 0.281 nM; that for `Cn1ncc(NC(=O)c2ccc(F)c(-c3c(F)cc(OCCO)cc3F)n2)c1[C@@H]1CC[C@@H](N)[C@H](F)CO1` [Example 209, N-(5-((2S,5R,6S)-5-Amino-6-fluorooxepan-2-yl)-1-methyl-1H-pyrazol-4-yl)-6-(2,6-difluoro-4-(2-hydroxyethoxy)phenyl)-5-fluoropicolinamide] was 0.016 nM; that for `Cn1ncc(NC(=O)c2nc(-c3c(F)ccc(F)c3F)sc2N)c1[C@@H]1CC[C@@H](N)[C@H](F)CO1` [Example 332, 5-amino-N-(5-((2S,5R,6S)-5-amino-6-fluorooxepan-2-yl)-1-methyl-1H-pyrazol-4-yl)-2-(2,3,6-trifluorophenyl)thiazole-4-carboxamide] was 0.003 nM. On to `COC1(c2c(NC(=O)c3nc(-c4c(F)cccc4F)sc3N)cnn2C)CCCCO1` (centres unmarked) [Example 103, 5-amino-2-(2,6-difluorophenyl)-N-[5-(2-methoxytetrahydropyran-2-yl)-1-methyl-pyrazol-4-yl]thiazole-4-carboxamide], for which the Ki came to 0.209 nM.
